What was measured:
PARP1 = PARP1 (Homo sapiens (Human), UniProt P09874); assay: PARP fluorescence anisotropy binding assay, PARP1
Description: Recombinant full length 6HIS tagged PARP1 protein was diluted to 6 nM with 50 mM Tris pH 8, 0.001% Triton X100, 10 mM MgCl2, 150 mM NaCl and incubated for four hours with an equivalent volume of 2 nM fluorescent probe diluted with 50 mM Tris pH 8, 0.001% Triton X100, 10 mM MgCl2, 150 mM NaCl. The final DMSO concentration of the probe was kept below 1% (v/v).
(§2) Fluorescence anisotropy of the probe when bound to the proteins was measured using a BMG Pherastar FSX® in the presence of test compounds or solvent control and the effect on anisotropy determined. % inhibition values for different test compound concentrations were calculated and fitted to a four parameter logistic plot in order to determine the IC50 value. Where necessary, the compound K, can be determined from the IC50 value using a Munson Rodbard equation defined in Anal Biochem. 1980 Sep.

PARP2 = PARP2 (Homo sapiens (Human), UniProt Q9UGN5); assay: PARP fluorescence anisotropy binding assay, PARP2
Description: Recombinant full length PARP2 protein was diluted to 6 nM with 50 mM Tris pH 8, 0.001% Triton X100, 10 mM MgCl2, 150 mM NaCl and incubated for four hours with an equivalent volume of 2 nM fluorescent probe diluted with 50 mM Tris pH 8, 0.001% Triton X100, 10 mM MgCl2, 150 mM NaCl. The final DMSO concentration of the probe was kept below 1% (v/v).
(§1) Fluorescence anisotropy of the probe when bound to the proteins was measured using a BMG Pherastar FSX® in the presence of test compounds or solvent control and the effect on anisotropy determined. % inhibition values for different test compound concentrations were calculated and fitted to a four parameter logistic plot in order to determine the IC50 value.

PARP3 = PARP3 (Homo sapiens (Human), UniProt Q9Y6F1); assay: PARP fluorescence anisotropy binding assay, PARP3
Description: Recombinant full length PARP3 protein was diluted to 100 nM with 50 mM Tris pH 8, 0.001% Triton X100, 10 mM MgCl2, 150 mM NaCl and incubated for four hours with an equivalent volume of 6 nM fluorescent probe diluted with 50 mM Tris pH 8, 0.001% Triton X100, 10 mM MgCl2, 150 mM NaCl. The final DMSO concentration of the probe was kept below 1% (v/v).

PARP5a = PARP5a (Homo sapiens (Human), UniProt O95271); assay: PARP fluorescence anisotropy binding assay, PARP5a
Description: Recombinant PARP5a binding domain was diluted to 160 nM with 50 mM Tris pH 8, 0.001% Triton X100, 10 mM MgCl2, 150 mM NaCl and incubated for four hours with an equivalent volume of 6 nM fluorescent probe diluted with 50 mM Tris pH 8, 0.001% Triton X100, 10 mM MgCl2, 150 mM NaCl. The final DMSO concentration of the probe was kept below 1% (v/v).
as §2

PARP6 = PARP6 (Homo sapiens (Human), UniProt Q2NL67); assay: PARP fluorescence anisotropy binding assay, PARP6
Description: Recombinant full length GST tagged PARP6 protein was diluted to 160 nM with 50 mM Tris pH 8, 0.001% Triton X100, 10 mM MgCl2, 150 mM NaCl and incubated for four hours with an equivalent volume of 6 nM fluorescent probe diluted with 50 mM Tris pH 8, 0.001% Triton X100, 10 mM MgCI2, 150 mM NaCl. The final DMSO concentration of the probe was kept below 1% (v/v).
as §1, with “value. Where necessary, the compound K, can be determined from the IC50 value using a Munson Rodbard equation defined in Anal Biochem. 1980 Sep. 1; 107(1):220-39 and is based on the known KD of the probe binding to the relevant PARP protein” for “value.”

MDR1 and BCRP = assay: In vitro human transporter efflux (MDCK-MDR1-BCRP); conditions: human, pH 7.4
Description: MDCKII cells expressing MDR1 and BCRP were seeded onto polyethylene membranes in 96-well Transwell insert systems at a density to form a confluent cell monolayer. […] The final percent volume of the organic solvent was less than 1%. Permeation of the test compounds from A to B direction and from B to A direction was determined over a 90-min incubation at 37° C. and 5% CO2 with a relative humidity of 95%. At the end of the incubation, samples from the apical and basolateral side were taken and then precipitated with cold acetonitrile containing internal standard. After centrifugation at 4000 rpm, the supernatant was diluted with 0.1% formic acid aqueous solution and quantified by LC-MS/MS. The integrity of the cell monolayers was confirmed by using the marker Lucifer yellow.
The permeability coefficient (1×10-6 cm/s) was calculated using the following equation
(1) The Efflux Ratio was Calculated Using the Following Equation
Efflux ratio=Papp(B to A)/Papp(A to B)
(2) where dCr/dt is the cumulative concentration of the compound in the receiver chamber as a function of time (in μM/s); Vr is the solution volume in the receiver chamber (0.1 ml on the apical side and 0.3 ml on the basolateral side); A is the surface area for the transport, that is, 0.11 cm2 for the area of the monolayer; and C0 is the initial concentration in the donor chamber (in μM).

Sequence of PARP3 (Q9Y6F1 whole entry): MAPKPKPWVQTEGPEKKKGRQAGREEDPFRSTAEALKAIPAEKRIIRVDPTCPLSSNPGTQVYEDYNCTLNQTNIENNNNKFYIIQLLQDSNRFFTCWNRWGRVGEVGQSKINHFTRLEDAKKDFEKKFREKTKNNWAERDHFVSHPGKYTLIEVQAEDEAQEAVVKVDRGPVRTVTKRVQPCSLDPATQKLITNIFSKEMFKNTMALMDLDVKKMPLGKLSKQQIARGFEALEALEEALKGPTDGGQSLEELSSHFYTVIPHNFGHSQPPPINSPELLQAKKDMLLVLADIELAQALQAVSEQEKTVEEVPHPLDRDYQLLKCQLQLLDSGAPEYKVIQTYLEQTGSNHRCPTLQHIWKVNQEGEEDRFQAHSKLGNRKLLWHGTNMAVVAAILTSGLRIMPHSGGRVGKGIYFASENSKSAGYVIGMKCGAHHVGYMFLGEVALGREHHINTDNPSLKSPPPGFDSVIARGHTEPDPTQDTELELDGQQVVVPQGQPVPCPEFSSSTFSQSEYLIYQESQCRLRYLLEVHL
Sequence of PARP2 (Q9UGN5 whole entry): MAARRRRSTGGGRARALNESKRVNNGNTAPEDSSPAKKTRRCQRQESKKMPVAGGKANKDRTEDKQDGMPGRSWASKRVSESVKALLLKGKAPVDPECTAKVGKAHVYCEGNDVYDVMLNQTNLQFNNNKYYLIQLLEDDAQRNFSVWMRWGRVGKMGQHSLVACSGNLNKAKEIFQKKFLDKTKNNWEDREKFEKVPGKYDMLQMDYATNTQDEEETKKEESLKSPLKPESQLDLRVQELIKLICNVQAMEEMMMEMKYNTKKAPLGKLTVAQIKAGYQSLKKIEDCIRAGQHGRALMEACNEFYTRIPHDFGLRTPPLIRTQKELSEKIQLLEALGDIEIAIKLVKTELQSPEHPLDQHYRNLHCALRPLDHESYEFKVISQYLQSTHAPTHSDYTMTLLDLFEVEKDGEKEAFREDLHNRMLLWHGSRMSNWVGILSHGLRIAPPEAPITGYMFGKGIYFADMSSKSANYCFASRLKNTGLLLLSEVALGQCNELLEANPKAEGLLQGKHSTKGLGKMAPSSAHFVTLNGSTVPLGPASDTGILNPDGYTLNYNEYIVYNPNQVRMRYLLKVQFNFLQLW
Sequence of PARP6 (Q2NL67 whole entry): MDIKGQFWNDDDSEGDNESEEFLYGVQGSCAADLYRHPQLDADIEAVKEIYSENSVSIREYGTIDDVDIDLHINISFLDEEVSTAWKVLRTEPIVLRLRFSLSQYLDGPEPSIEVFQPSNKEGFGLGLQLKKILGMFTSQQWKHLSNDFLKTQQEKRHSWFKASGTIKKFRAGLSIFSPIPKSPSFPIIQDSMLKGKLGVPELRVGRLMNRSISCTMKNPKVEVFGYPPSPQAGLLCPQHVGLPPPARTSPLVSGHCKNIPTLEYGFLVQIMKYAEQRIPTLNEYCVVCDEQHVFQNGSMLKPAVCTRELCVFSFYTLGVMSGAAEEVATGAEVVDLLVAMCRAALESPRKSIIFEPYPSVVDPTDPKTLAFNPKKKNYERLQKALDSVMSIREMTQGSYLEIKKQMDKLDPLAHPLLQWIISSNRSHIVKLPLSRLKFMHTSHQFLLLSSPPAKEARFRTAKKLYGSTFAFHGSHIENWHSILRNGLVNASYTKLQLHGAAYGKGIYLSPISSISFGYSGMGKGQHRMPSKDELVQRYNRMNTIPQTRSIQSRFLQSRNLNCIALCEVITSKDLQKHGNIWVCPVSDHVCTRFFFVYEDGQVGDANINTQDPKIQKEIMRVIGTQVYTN
Sequence of PARP5a (O95271 1112-1317): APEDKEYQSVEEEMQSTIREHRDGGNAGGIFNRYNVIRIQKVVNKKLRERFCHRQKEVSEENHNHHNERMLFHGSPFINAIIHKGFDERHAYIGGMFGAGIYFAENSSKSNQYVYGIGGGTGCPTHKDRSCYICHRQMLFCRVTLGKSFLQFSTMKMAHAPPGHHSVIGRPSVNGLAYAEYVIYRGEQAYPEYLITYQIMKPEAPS
Sequence of PARP1 (P09874 whole entry): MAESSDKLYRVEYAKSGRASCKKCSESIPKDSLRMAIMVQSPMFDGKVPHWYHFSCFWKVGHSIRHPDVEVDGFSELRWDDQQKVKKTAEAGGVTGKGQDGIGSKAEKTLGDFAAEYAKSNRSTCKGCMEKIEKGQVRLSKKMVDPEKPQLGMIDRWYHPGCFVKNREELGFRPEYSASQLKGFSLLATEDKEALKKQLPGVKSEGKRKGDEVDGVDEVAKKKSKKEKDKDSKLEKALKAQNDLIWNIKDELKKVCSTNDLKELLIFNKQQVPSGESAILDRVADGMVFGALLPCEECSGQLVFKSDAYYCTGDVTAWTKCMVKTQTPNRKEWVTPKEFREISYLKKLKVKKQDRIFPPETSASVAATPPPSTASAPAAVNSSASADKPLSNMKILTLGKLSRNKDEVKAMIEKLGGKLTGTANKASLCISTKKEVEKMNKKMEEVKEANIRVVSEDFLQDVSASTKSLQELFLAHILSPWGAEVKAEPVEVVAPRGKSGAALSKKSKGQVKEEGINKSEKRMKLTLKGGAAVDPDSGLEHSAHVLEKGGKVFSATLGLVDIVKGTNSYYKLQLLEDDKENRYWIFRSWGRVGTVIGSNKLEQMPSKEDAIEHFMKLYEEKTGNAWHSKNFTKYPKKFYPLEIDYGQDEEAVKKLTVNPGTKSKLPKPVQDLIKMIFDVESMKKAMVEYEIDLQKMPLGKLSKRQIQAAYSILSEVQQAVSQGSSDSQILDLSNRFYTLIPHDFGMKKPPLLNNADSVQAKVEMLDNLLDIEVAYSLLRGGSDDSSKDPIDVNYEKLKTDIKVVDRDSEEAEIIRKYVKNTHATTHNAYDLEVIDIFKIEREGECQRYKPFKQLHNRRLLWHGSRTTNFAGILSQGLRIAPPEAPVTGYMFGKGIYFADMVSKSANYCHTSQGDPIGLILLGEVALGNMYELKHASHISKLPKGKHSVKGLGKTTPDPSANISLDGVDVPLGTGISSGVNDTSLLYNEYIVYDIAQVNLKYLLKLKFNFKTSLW

Row | SMILES | IC50 (PARP1) [µM] | IC50 (PARP2) [µM] | IC50 (PARP3) [µM] | IC50 (PARP5a) [µM] | IC50 (PARP6) [µM] | efflux ratio at 90 min (MDR1 and BCRP)
1 | CNC(=O)c1ccc(N2CCN(Cc3ccc4nc(C)c(=O)[nH]c4c3C)CC2)c(Cl)n1 [Example 3, 6-chloro-5-[4-[(2,5-dimethyl-3-oxo-4H-quinoxalin-6-yl)methyl]piperazin-1-yl]-N-methyl-pyridine-2-carboxamide] | 0.003 | > 100 | > 100 | > 100 | > 100 | 1.3
2 | CCc1nc2ccc(CN3CCN(c4ccc(C(=O)NC)nc4F)CC3)c(Cl)c2[nH]c1=O [Example 9, 5-[4-[(5-chloro-2-ethyl-3-oxo-4H-quinoxalin-6-yl)methyl]piperazin-1-yl]-6-fluoro-N-methyl-pyridine-2-carboxamide] | 0.004 |  |  |  |  | 0.4
3 | CNC(=O)c1ccc(N2CCN(Cc3ccc4nc(C(C)(F)F)c(=O)[nH]c4c3F)CC2)c(C)n1 [Example 19, 5-[4-[[2-(1,1-difluoroethyl)-5-fluoro-3-oxo-4H-quinoxalin-6-yl]methyl]piperazin-1-yl]-N,6-dimethyl-pyridine-2-carboxamide] | 0.013 | 40 |  |  |  | 2.4
4 | CNC(=O)c1ccc(N2CCN(Cc3ccc4nc(C)c(=O)[nH]c4c3F)CC2)c(C(F)F)n1 [Example 21, 6-(difluoromethyl)-5-[4-[(5-fluoro-2-methyl-3-oxo-4H-quinoxalin-6-yl)methyl]piperazin-1-yl]-N-methyl-pyridine-2-carboxamide] | 0.007 | > 100 | 5.8 | > 100 | > 100 | 1.6
5 | CCc1nc2ccc(CN3CCN(c4ccc(C(=O)NC)nc4C(F)F)CC3)c(F)c2[nH]c1=O [Example 24, 6-(difluoromethyl)-5-[4-[(2-ethyl-5-fluoro-3-oxo-4H-quinoxalin-6-yl)methyl]piperazin-1-yl]-N-methyl-pyridine-2-carboxamide] | 0.006 | > 81 | > 100 | > 100 | > 100 | 1.1
6 | CCc1nc2ccc(CN3CCN(c4ccc(C(=O)NC)nc4Cl)CC3)c(F)c2[nH]c1=O [Example 28, 6-chloro-5-[4-[(2-ethyl-5-fluoro-3-oxo-4H-quinoxalin-6-yl)methyl]piperazin-1-yl]-N-methyl-pyridine-2-carboxamide] | 0.005 | > 100 | > 100 | > 100 | > 100 | 0.8
7 | CNC(=O)c1ccc(N2CCN(Cc3ccc4nc(C)c(=O)[nH]c4c3F)CC2)c(Cl)n1 [Example 30, 6-chloro-5-[4-[(5-fluoro-2-methyl-3-oxo-4H-quinoxalin-6-yl)methyl]piperazin-1-yl]-N-methyl-pyridine-2-carboxamide] | 0.006 | > 100 | > 100 | > 100 | > 100 | 1.8
8 | CNC(=O)c1ccc(N2CCN(Cc3ccc4nc(C)c(=O)[nH]c4c3F)CC2)cn1 [Example 32, 5-[4-[(5-fluoro-2-methyl-3-oxo-4H-quinoxalin-6-yl)methyl]piperazin-1-yl]-N-methyl-pyridine-2-carboxamide] | 0.007 | > 100 | > 100 | > 100 | > 100 | 
9 | CNC(=O)c1ccc(N2CCN(Cc3ccc4nc(C(F)F)c(=O)[nH]c4c3F)CC2)c(C)n1 [Example 37, 5-[4-[[2-(difluoromethyl)-5-fluoro-3-oxo-4H-quinoxalin-6-yl]methyl]piperazin-1-yl]-N,6-dimethyl-pyridine-2-carboxamide] | 0.026 | 57 |  |  |  | 5
10 | CNC(=O)c1ccc(N2CCN(Cc3ccc4nc(OC)c(=O)[nH]c4c3F)CC2)cn1 [Example 38, 5-[4-[(5-fluoro-2-methoxy-3-oxo-4H-quinoxalin-6-yl)methyl]piperazin-1-yl]-N-methyl-pyridine-2-carboxamide] | 0.012 | 21 | > 100 | > 100 | > 100 | 
11 | CNC(=O)c1ccc(N2CCN(Cc3ccc4nc(OC)c(=O)[nH]c4c3F)CC2)c(F)n1 [Example 39, 6-fluoro-5-[4-[(5-fluoro-2-methoxy-3-oxo-4H-quinoxalin-6-yl)methyl]piperazin-1-yl]-N-methyl-pyridine-2-carboxamide] | 0.006 | > 100 | > 100 | > 100 | > 100 | 1.9
12 | CNC(=O)c1ccc(N2CCN(Cc3ccc4nc(OC)c(=O)[nH]c4c3F)CC2)c(C)n1 [Example 40, 5-[4-[(5-fluoro-2-methoxy-3-oxo-4H-quinoxalin-6-yl)methyl]piperazin-1-yl]-N,6-dimethyl-pyridine-2-carboxamide] | 0.011 | > 100 | > 100 | 13 | > 100 | 2
13 | CNC(=O)c1ccc(N2CCN(Cc3ccc4nc(OC)c(=O)[nH]c4c3F)CC2)c(Cl)n1 [Example 41, 6-chloro-5-[4-[(5-fluoro-2-methoxy-3-oxo-4H-quinoxalin-6-yl)methyl]piperazin-1-yl]-N-methyl-pyridine-2-carboxamide] | 0.005 | > 100 | > 100 | > 100 | > 100 | 2.4
14 | CCNC(=O)c1ccc(N2CCN(Cc3ccc4nc(C)c(=O)[nH]c4c3F)CC2)c(F)n1 [Example 45, N-ethyl-6-fluoro-5-[4-[(5-fluoro-2-methyl-3-oxo-4H-quinoxalin-6-yl)methyl]piperazin-1-yl]pyridine-2-carboxamide] | 0.006 | > 100 |  |  |  | 1.5
15 | CNC(=O)c1ccc(N2CCN(Cc3ccc4nc(C(F)(F)F)c(=O)[nH]c4c3F)CC2)c(C)n1 [Example 47, 5-[4-[[5-fluoro-3-oxo-2-(trifluoromethyl)-4H-quinoxalin-6-yl]methyl]piperazin-1-yl]-N,6-dimethyl-pyridine-2-carboxamide] | 0.076 | > 100 | > 100 | > 100 | > 100 | 
16 | CNC(=O)c1ccc(N2CCN(Cc3ccc4nc(C(F)(F)F)c(=O)[nH]c4c3F)CC2)c(F)n1 [Example 48, 6-fluoro-5-[4-[[5-fluoro-3-oxo-2-(trifluoromethyl)-4H-quinoxalin-6-yl]methyl]piperazin-1-yl]-N-methyl-pyridine-2-carboxamide] | 0.039 | 26 | > 100 | > 100 | > 100 | 8.8
17 | CNC(=O)c1ccc(N2CCN(Cc3ccc4nc(C(F)(F)F)c(=O)[nH]c4c3F)CC2)c(Cl)n1 [Example 49, 6-chloro-5-[4-[[5-fluoro-3-oxo-2-(trifluoromethyl)-4H-quinoxalin-6-yl]methyl]piperazin-1-yl]-N-methyl-pyridine-2-carboxamide] | 0.043 | 11 | > 29 | > 100 | > 100 | 
